The results in this text go back to EP4745135A1 (Gluetacs Therapeutics (Shanghai) Co., Ltd., priority 2023, dated 2025).

Experiment [1] concerns the target T1, human Cereblon WT GST-tagged protein (Homo sapiens, UniProt Q96SW2).
T1 construct: purchased CISBIO 64BDCRBNPEH
As to the kind of experiment: CRBN-binding affinity, HTRF (CEREBLON BINDING kit). Conditions: for inhibition at 0.5 µM: read-out: Inhibition Rate at 0.5 µM (%); for inhibition at 2 µM: read-out: Inhibition Rate at 2 µM (%).

Experiment [2] deals with Human myeloid monocytic leukemia cell (MV-4-11). As to the kind of experiment: Tumor cell proliferation inhibition (CellTiter-Meiluncell luminescent cell viability assay). Conditions: MV4-11, 96 h; for inhibition at 0.01 µM: read-out: Inhibition Rate at 10 nM (%); for inhibition at 0.5 µM: read-out: Inhibition Rate at 500 nM (%).
Procedure: (§1) The tumor cells used herein were cultured in a cell culture medium listed in table 2 at 37°C in an incubator with 5% CO2. Prior to experimentation, all cell lines used were correctly identified by STR profiling, and tested negative for mycoplasma contamination using a mycoplasma detection kit through routine screenings.
(§2) The IC50 values of the compounds of the present disclosure (including the compounds in Table 1 and Examples) were determined using the CellTiter-Meiluncell Luminescent Cell Viability Assay Kit from Dalian Meilun Biotech Co., Ltd. The detailed procedure is as follows: Tumor cells were seeded in 96-well cell culture plates at the densities specified in Table 3. On the following day, the test compounds of the present disclosure were subjected to serial dilution. The dilution can be performed according to one of the following two methods: • (1) The first dilution method: The test compounds of the present disclosure (including the compounds in Table 1 and Examples) were subjected to 5-fold serial dilutions starting from a highest concentration of 2000 µM, resulting in a total of 9 concentrations from high to low (2000, 400, 80, 16, 3.2, 0.64, 0.128, 0.0256, 0.00512 µM). Subsequently, 0.5 µL of the test compound dilution was transferred into the 96-well plate containing the cells, with each well containing 100 µL of cell culture medium. […] Into the 96-well plate, the diluted test compounds and corresponding detection reagents were added, resulting in final test compound concentrations of 500 nM and 10 nM, respectively. The experimental procedure is described below using the diluted 2 µM test compound as an example.
(§3) 0.5 µL of the aforementioned diluted compound of the present disclosure (including the compounds in Table 1 and Examples) was added to the seeded cells in 100 µL of medium, yielding a final test compound concentration of 10 nM. After the cells were treated with the compounds of the present disclosure for a specified period, the cell viability assay reagent was added to the culture medium according to the kit's instructions to determine cell viability. […] All controls were treated using the same procedure as the compounds of the present disclosure. The growth inhibition curves for the compounds of the present disclosure were plotted using Prism GraphPad software, and the IC50 values were calculated therefrom.
The subject of the next experiment is GSPT1. The experiment in a line: Western blot, degradation of substrate protein in hPBMCs. Conditions: Western blot, 24 hours of compound treatment, compounds tested at 50 nM and 500 nM (concentration for the table not stated). In kind it is cell-based, Human. Background: Immunoblotting shows a protein as a band on a membrane.
Experiment [3] relates to Human acute myeloid leukemia cell line: Kasumi-1. The experiment in a line: Tumor cell proliferation inhibition (CellTiter-Meiluncell luminescent cell viability assay). Conditions: Kasumi 1, 96 h; for inhibition at 0.01 µM: read-out: Inhibition Rate at 10 nM (%); for inhibition at 0.5 µM: read-out: Inhibition Rate at 500 nM (%).
Procedure: as §1, §2, §3
In the next experiment the target is T2, CK1α (Homo sapiens, UniProt P48729+Q96SW2).
T2 construct: effects of the compounds of the present disclosure on the expression of target proteins in cells; endogenous in cells; host or cells: human PBMCs (Milecell Biotechnologies)
T2 sequence (P48729 whole entry): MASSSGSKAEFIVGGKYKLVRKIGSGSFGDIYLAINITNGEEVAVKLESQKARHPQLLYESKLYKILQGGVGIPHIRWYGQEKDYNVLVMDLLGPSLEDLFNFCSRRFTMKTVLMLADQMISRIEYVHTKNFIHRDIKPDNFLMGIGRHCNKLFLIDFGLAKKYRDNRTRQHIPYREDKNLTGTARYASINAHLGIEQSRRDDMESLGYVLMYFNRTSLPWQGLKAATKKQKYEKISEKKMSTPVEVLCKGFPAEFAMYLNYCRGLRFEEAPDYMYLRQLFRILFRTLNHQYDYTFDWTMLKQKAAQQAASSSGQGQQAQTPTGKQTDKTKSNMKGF
T2 sequence (Q96SW2 whole entry): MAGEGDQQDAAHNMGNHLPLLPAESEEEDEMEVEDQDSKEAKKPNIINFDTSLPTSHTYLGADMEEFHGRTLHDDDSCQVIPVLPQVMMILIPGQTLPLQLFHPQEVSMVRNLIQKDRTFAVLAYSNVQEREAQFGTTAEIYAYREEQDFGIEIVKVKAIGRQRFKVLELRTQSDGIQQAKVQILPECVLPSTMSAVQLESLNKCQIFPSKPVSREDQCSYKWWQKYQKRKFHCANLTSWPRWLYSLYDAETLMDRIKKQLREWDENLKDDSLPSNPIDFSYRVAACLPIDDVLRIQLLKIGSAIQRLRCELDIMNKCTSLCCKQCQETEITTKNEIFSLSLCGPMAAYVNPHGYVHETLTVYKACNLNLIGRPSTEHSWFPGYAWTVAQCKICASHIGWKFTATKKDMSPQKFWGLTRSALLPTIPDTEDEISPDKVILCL
T2 sequence (Q16531 whole entry partner): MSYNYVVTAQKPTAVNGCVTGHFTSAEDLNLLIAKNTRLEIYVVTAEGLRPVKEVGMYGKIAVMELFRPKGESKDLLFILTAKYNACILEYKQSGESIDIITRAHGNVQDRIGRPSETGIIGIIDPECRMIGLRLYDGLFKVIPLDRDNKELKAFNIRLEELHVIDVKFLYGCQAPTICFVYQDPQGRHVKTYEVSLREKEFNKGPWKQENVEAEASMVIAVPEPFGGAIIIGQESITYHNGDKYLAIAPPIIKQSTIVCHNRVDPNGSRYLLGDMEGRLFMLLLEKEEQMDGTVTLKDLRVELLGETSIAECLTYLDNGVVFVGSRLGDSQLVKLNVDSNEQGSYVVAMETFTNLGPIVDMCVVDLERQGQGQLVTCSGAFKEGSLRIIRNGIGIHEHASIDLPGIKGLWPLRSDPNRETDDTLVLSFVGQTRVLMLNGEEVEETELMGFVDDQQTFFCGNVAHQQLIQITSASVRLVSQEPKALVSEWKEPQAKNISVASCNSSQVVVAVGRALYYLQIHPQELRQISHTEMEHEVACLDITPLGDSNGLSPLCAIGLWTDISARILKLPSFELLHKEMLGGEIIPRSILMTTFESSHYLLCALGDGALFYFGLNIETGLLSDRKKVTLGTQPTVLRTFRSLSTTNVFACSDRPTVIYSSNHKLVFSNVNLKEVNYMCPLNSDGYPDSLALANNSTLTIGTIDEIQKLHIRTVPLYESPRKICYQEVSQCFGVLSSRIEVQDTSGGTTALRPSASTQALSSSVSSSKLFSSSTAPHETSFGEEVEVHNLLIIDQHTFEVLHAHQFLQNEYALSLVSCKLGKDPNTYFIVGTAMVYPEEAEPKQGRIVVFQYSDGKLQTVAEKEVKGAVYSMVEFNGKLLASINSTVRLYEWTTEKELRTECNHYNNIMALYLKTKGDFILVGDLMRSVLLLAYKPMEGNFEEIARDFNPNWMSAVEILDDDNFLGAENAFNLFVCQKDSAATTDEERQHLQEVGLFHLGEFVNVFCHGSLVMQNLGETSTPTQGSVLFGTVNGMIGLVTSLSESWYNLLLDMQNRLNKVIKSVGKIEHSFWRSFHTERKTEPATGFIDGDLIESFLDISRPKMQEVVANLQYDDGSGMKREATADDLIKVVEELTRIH
The experiment in a line: Western blot, degradation of substrate protein in hPBMCs. The note with it: Western blot, 24 hours of compound treatment, compounds tested at 50 nM and 500 nM (concentration for the table not stated). The format is cell-based.

The next experiment has as its target T3, WEE1 (Homo sapiens, UniProt P30291+Q96SW2).
T3 construct: effects of the compounds of the present disclosure on the expression of target proteins in cells; endogenous in cells; host or cells: human PBMCs (Milecell Biotechnologies)
The experiment is described as above. The format is cell-based. The note with it: Western blot, 24 hours of compound treatment, compounds tested at 50 nM and 500 nM (concentration for the table not stated).

For a further experiment, the target named is T4, IKZF1 (Homo sapiens, UniProt Q13422+Q96SW2).
T4 construct: effects of the compounds of the present disclosure on the expression of target proteins in cells; endogenous in cells; host or cells: human PBMCs (Milecell Biotechnologies)
T4 sequence (Q13422 whole entry): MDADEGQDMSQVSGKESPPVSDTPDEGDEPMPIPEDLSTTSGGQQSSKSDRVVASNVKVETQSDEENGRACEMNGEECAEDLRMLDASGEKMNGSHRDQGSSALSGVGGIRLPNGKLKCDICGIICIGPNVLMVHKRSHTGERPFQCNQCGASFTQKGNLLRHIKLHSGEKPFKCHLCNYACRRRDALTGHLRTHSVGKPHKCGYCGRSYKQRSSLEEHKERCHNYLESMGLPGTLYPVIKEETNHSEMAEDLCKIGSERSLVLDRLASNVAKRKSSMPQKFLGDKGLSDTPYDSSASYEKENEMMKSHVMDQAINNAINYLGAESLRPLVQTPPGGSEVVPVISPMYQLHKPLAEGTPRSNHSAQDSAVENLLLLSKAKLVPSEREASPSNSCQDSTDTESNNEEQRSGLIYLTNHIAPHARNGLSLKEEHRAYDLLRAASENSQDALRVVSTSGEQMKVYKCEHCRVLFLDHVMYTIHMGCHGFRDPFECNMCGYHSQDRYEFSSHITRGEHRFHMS
T4 sequence (Q96SW2 whole entry): as the sequence (Q96SW2 whole entry) above
T4 sequence (Q16531 whole entry partner): as the sequence (Q16531 whole entry partner) above
The experiment is described as above. The note with it: Western blot, 24 hours of compound treatment, compounds tested at 50 nM and 500 nM (concentration for the table not stated). In kind it is cell-based.

The next experiment has as its target T5, IKZF3 (Homo sapiens, UniProt Q96SW2+Q9UKT9).
T5 construct: effects of the compounds of the present disclosure on the expression of target proteins in cells; endogenous in cells; host or cells: human PBMCs (Milecell Biotechnologies)
The description is as above. Conditions: Western blot, 24 hours of compound treatment, compounds tested at 50 nM and 500 nM (concentration for the table not stated). The format is cell-based.

Another experiment addresses T6, IKZF2 (Homo sapiens, UniProt Q96SW2+Q9UKS7).
T6 construct: effects of the compounds of the present disclosure on the expression of target proteins in cells; endogenous in cells; host or cells: human PBMCs (Milecell Biotechnologies)
Described as above. The note with it: Western blot, 24 hours of compound treatment, compounds tested at 50 nM and 500 nM (concentration for the table not stated). The format is cell-based.

Experiment [4] has as its system Human breast cancer cell (MCF-7). The experiment in a line: Tumor cell proliferation inhibition (CellTiter-Meiluncell luminescent cell viability assay). The note with it: MCF7, 96 h.
For experiment [5], the system named is Human multiple myeloma cell (MM.1S). Described as above. Conditions: Homo sapiens, MM1.S, 96 h; for inhibition at 0.01 µM: read-out: Inhibition Rate at 10 nM (%); for inhibition at 0.5 µM: read-out: Inhibition Rate at 500 nM (%).
Experiment [6] relates to Human T lymphocytic leukemia cell line: Jurkat. Described as above. The note with it: 96 h; for inhibition at 0.01 µM: read-out: Inhibition Rate at 10 nM (%); for inhibition at 0.5 µM: read-out: Inhibition Rate at 500 nM (%).
Experiment [7] deals with Human multiple myeloma peripheral blood B lymphocyte cell (RPMI-8226). The description is as above. Conditions: RPMI-8226, 96 h.
Procedure: as §1, §2, §3
The test system of experiment [8] is Human T cell acute lymphoblastic leukemia cell (CCRF-CEM). The experiment is described as above. The note with it: 96 h.
Experiment [9] deals with Human acute T lymphocytic leukemia cell (Molt4). Described as above. Conditions: MOLT-4, 96 h.
Procedure: as §1, §2, §3
Setting [10] is: read-out: Inhibition Rate at 10 nM (%).
[11] abbreviates: read-out: Inhibition Rate at 500 nM (%).

T6 sequence (Q9UKS7 whole entry): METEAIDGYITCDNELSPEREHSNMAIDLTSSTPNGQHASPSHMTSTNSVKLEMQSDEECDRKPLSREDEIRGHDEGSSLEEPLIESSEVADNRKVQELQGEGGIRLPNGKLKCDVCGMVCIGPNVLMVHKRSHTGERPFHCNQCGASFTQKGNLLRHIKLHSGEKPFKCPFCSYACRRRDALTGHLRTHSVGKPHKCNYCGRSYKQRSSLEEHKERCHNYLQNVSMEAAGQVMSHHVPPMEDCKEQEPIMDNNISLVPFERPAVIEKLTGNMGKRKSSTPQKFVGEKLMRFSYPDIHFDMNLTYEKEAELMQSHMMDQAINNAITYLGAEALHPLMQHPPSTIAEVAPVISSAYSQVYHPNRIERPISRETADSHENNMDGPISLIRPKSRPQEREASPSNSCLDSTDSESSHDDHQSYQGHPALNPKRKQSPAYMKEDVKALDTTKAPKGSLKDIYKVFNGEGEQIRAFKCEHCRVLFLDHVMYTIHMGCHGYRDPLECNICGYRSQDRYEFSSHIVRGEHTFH
T6 sequence (Q96SW2 whole entry): as the sequence (Q96SW2 whole entry) above
T6 sequence (Q16531 whole entry partner): as the sequence (Q16531 whole entry partner) above
T5 sequence (Q9UKT9 whole entry): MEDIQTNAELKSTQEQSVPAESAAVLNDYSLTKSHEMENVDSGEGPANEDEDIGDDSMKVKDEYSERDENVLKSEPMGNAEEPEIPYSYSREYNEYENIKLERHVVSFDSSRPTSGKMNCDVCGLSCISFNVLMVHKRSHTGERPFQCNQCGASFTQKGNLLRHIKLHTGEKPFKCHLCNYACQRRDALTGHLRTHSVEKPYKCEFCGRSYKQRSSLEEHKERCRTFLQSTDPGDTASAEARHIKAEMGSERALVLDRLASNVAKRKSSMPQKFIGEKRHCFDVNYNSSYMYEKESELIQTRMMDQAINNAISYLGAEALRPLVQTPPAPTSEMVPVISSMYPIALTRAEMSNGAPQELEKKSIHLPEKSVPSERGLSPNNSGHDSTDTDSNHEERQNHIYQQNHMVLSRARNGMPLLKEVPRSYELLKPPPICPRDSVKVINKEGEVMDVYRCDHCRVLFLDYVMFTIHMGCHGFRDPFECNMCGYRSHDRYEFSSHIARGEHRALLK
T5 sequence (Q96SW2 whole entry): as the sequence (Q96SW2 whole entry) above
T5 sequence (Q16531 whole entry partner): as the sequence (Q16531 whole entry partner) above
T1 sequence (Q96SW2 whole entry): as the sequence (Q96SW2 whole entry) above
T3 sequence (P30291 whole entry): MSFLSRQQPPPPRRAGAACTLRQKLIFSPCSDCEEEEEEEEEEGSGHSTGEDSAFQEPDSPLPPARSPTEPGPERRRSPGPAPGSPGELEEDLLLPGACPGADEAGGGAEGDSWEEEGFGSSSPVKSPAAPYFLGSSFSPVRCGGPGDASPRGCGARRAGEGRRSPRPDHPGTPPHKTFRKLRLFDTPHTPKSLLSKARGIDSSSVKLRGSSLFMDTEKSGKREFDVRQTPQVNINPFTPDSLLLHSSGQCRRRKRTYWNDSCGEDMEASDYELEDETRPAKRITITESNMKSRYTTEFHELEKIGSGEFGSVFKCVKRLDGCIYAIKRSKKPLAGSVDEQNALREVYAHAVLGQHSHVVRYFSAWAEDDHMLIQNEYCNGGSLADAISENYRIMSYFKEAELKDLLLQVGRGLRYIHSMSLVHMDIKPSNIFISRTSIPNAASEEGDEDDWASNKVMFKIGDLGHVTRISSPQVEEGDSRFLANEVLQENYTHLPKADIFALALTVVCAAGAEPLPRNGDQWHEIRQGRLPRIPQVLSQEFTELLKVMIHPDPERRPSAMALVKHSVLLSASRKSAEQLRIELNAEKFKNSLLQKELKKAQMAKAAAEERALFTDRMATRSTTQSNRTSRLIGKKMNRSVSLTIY
T3 sequence (Q96SW2 whole entry): as the sequence (Q96SW2 whole entry) above
T3 sequence (Q16531 whole entry partner): as the sequence (Q16531 whole entry partner) above

In the case of `O=C1CCC(N2Cc3c(CN4CCN(c5ccc(Cl)cc5)CC4)cccc3C2=S)C(=O)N1` (centres unmarked) [GT-08266, 3-(4-((4-(4-chlorophenyl)piperazin-1-yl)methyl)-1-thioxoisoindolin-2-yl)piperidine-2,6-dione], the inhibition at 0.5 µM in experiment [1] was 30 to 40%; in [2], 80 to 100%; in experiment [3], 50 to 60%; in experiment [4] (setting [11]) it was 40 to 50%; in [5], 50 to 60%. Further, in [1], the inhibition at 2 µM was 60 to 80%. For the same compound, the inhibition at 0.01 µM in experiment [2] was in the range of 60 to 80%; in [3] it was 50 to 60%; in experiment [4] (setting [10]), 40 to 50%; in [5], 40 to 50%. The “GSPT1 substrate protein remaining %” value in the experiment with GSPT1 is “A (0% ≤ substrate protein remaining % ≤ 80%)”. In addition, the “CK1α substrate protein remaining %” value at CK1α is on record as “B (80%< substrate protein remaining %≤ 100%)”. At WEE1, the “Wee1 substrate protein remaining %” value was “A (0% ≤ substrate protein remaining % ≤ 80%)”. For the same compound, the “IKZF 1 substrate protein remaining %” value at IKZF1 is “B (80%< substrate protein remaining %≤ 100%)”. In addition, the “IKZF3 substrate protein remaining %” value at IKZF3 is on record as “B (80%< substrate protein remaining %≤ 100%)”. For the same compound, the “IKZF2 substrate protein remaining %” value on IKZF2 is reported as “B (80%< substrate protein remaining %≤ 100%)”.
As to `O=C1CCC(N2Cc3c(CN4CCN(c5cccc(F)c5)CC4)cccc3C2=S)C(=O)N1` (centres unmarked) [GT-08263, 3-(4-((4-(3-fluorophenyl)piperazin-1-yl)methyl)-1-thioxoisoindolin-2-yl)piperidine-2,6-dione], the inhibition at 0.5 µM in experiment [1] fell in the range of 53 to 60%; in experiment [2], 80 to 100%; in [3] it was 60 to 70%; in experiment [6], 30 to 40%. Moreover, the inhibition at 2 µM in experiment [1] was in the range of 80 to 100%. The values for the inhibition at 0.01 µM in [2], in experiment [3] and in [6] were 60 to 80%, 50 to 60% and 20 to 30%, respectively. Moreover, the “GSPT1 substrate protein remaining %” value in the experiment with GSPT1 is reported as “A (0% ≤ substrate protein remaining % ≤ 80%)”. Further, on CK1α, the “CK1α substrate protein remaining %” value is listed as “A (0% ≤ substrate protein remaining % ≤ 80%)”. On WEE1, the “Wee1 substrate protein remaining %” value is given as “A (0% ≤ substrate protein remaining % ≤ 80%)”. Besides, the “IKZF 1 substrate protein remaining %” value at IKZF1 is reported as “B (80%< substrate protein remaining %≤ 100%)”. Besides, the “IKZF3 substrate protein remaining %” value at IKZF3 is given as “B (80%< substrate protein remaining %≤ 100%)”. Besides, the “IKZF2 substrate protein remaining %” value at IKZF2 is “B (80%< substrate protein remaining %≤ 100%)”.
Consider `COc1ccccc1N1CCN(Cc2cccc3c2CN(C2CCC(=O)NC2=O)C3=S)CC1` (centres unmarked) [GT-08260, 3-(4-((4-(2-methoxyphenyl)piperazin-1-yl)methyl)-1-thioxoisoindolin-2-yl)piperidine-2,6-dione], for which the results for the inhibition at 0.5 µM in experiment [1], in [7] (setting [11]) and in experiment [8] (setting [11]) were 60 to 80%, 70 to 80% and 40 to 50%, respectively. The inhibition at 2 µM in experiment [1] fell in the range of 80 to 100%. The inhibition at 0.01 µM was in the range of 70 to 80% in experiment [7] (setting [10]) and 20 to 30% in experiment [8] (setting [10]). Moreover, in the experiment on GSPT1, the “GSPT1 substrate protein remaining %” value was “A (0% ≤ substrate protein remaining % ≤ 80%)”. In addition, the “CK1α substrate protein remaining %” value at CK1α is on record as “B (80%< substrate protein remaining %≤ 100%)”. Further, the “Wee1 substrate protein remaining %” value at WEE1 was “A (0% ≤ substrate protein remaining % ≤ 80%)”. In addition, the “IKZF 1 substrate protein remaining %” value on IKZF1 is “B (80%< substrate protein remaining %≤ 100%)”. For the same compound, the “IKZF3 substrate protein remaining %” value on IKZF3 is on record as “B (80%< substrate protein remaining %≤ 100%)”. The “IKZF2 substrate protein remaining %” value on IKZF2 is recorded as “B (80%< substrate protein remaining %≤ 100%)”.
Take `O=C1CCC(N2Cc3cc(CN4CCN(c5cccc(F)c5F)CC4)ccc3C2=S)C(=O)N1` (centres unmarked) [GT-08210, 3-(5-((4-(2,3-difluorophenyl)piperazin-1-yl)methyl)-1-thioxoisoindolin-2-yl)piperidine-2,6-dione]: the inhibition at 0.5 µM in experiment [1] was 60 to 80%; in experiment [2] it was 80 to 100%; in [3], 80 to 100%; in [6], 60 to 70%; in [5], 80 to 100%; in [9] (setting [11]), 80 to 100%. In experiment [1], the inhibition at 2 µM was 80 to 100%. Moreover, the inhibition at 0.01 µM in [2] lay in the range of 5 to 10%; in experiment [3] it was 20 to 30%; in [6], 20 to 30%; in experiment [5], 20 to 30%; in experiment [9] (setting [10]), 10 to 20%. Moreover, in the experiment on GSPT1, the “GSPT1 substrate protein remaining %” value is on record as “A (0% ≤ substrate protein remaining % ≤ 80%)”. For the same compound, at CK1α, the “CK1α substrate protein remaining %” value is listed as “B (80%< substrate protein remaining %≤ 100%)”. For the same compound, the “Wee1 substrate protein remaining %” value at WEE1 is “A (0% ≤ substrate protein remaining % ≤ 80%)”. Moreover, at IKZF1, the “IKZF 1 substrate protein remaining %” value was “A (0% ≤ substrate protein remaining % ≤ 80%)”. Also, the “IKZF3 substrate protein remaining %” value at IKZF3 is recorded as “A (0% ≤ substrate protein remaining % ≤ 80%)”. For the same compound, on IKZF2, the “IKZF2 substrate protein remaining %” value is “A (0% ≤ substrate protein remaining % ≤ 80%)”.
As to `CC1(C)CCC(CN2CC3CCC(C2)N3Cc2cccc3c2CN(C2CCC(=O)NC2=O)C3=S)=C(c2ccc(Cl)cc2)C1` (centres unmarked) [GT-08292, 3-(4-((3-((4'-chloro-5,5-dimethyl-3,4,5,6-tetrahydro-[1,1'-biphenyl]-2-yl)methyl)-3,8-diazabicyclo[3.2.1]octan-8-yl)methyl)-1-thioxoisoindolin-2-yl)piperidine-2,6-dione], the inhibition at 0.5 µM was 30 to 40% in experiment [1], 60 to 80% in experiment [2], 50 to 60% in experiment [3] and 30 to 40% in [6]. Besides, the inhibition at 2 µM in experiment [1] was 60 to 80%. The inhibition at 0.01 µM fell in the range of 60 to 80% in experiment [2], 60 to 70% in [3] and 30 to 40% in experiment [6]. Also, the “GSPT1 substrate protein remaining %” value in the experiment with GSPT1 is “A (0% ≤ substrate protein remaining % ≤ 80%)”. At CK1α, the “CK1α substrate protein remaining %” value is given as “A (0% ≤ substrate protein remaining % ≤ 80%)”. Also, the “Wee1 substrate protein remaining %” value on WEE1 was “A (0% ≤ substrate protein remaining % ≤ 80%)”. Further, the “IKZF 1 substrate protein remaining %” value at IKZF1 is “B (80%< substrate protein remaining %≤ 100%)”. The “IKZF3 substrate protein remaining %” value on IKZF3 is recorded as “B (80%< substrate protein remaining %≤ 100%)”. Also, at IKZF2, the “IKZF2 substrate protein remaining %” value is on record as “B (80%< substrate protein remaining %≤ 100%)”.
Take `O=C1CCC(N2Cc3c(CN4CC=C(c5cccc(F)c5Cl)CC4)cccc3C2=S)C(=O)N1` (centres unmarked) [GT-08301, 3-(4-((4-(2-chloro-3-fluorophenyl)-3,6-dihydropyridin-1(2H)-yl)methyl)-1-thioxoisoindolin-2-yl)piperidine-2,6-dione]: the inhibition at 0.01 µM in experiment [2] is 40 to 60%; in experiment [3], 50 to 60%; in [6], 20 to 30%. Moreover, the results for the inhibition at 0.5 µM in experiment [2], in experiment [3] and in experiment [6] were 40 to 60%, 50 to 60% and 30 to 40%, respectively. The “GSPT1 substrate protein remaining %” value with GSPT1 is given as “A (0% ≤ substrate protein remaining % ≤ 80%)”. In addition, the “CK1α substrate protein remaining %” value on CK1α is listed as “A (0% ≤ substrate protein remaining % ≤ 80%)”. Also, the “Wee1 substrate protein remaining %” value on WEE1 is reported as “A (0% ≤ substrate protein remaining % ≤ 80%)”. In addition, at IKZF1, the “IKZF 1 substrate protein remaining %” value is recorded as “B (80%< substrate protein remaining %≤ 100%)”. On IKZF3, the “IKZF3 substrate protein remaining %” value was “B (80%< substrate protein remaining %≤ 100%)”. On IKZF2, the “IKZF2 substrate protein remaining %” value is on record as “B (80%< substrate protein remaining %≤ 100%)”.

Usually inhibition stands for the drop in the measured response relative to a control, in per cent.
